pIC50: −log10 of the molar value.
Tests used:
[1] = target: T1, H1299 cell pAxl (Homo sapiens, UniProt P30530); assay: Inhibitory activity on cell pAxl (H1299 cells, hGAS6 stimulation, Western Blot); assay type: cell-based; conditions: hGAS6 200 ng/mL, tested at 1.1, 3.3, 10 and 30 nM, read-out: Inhibitory Activity on Cell pAx1, IC50
T1 construct: endogenous in cells; host or cells: H1299
T1 sequence (P30530 26-894): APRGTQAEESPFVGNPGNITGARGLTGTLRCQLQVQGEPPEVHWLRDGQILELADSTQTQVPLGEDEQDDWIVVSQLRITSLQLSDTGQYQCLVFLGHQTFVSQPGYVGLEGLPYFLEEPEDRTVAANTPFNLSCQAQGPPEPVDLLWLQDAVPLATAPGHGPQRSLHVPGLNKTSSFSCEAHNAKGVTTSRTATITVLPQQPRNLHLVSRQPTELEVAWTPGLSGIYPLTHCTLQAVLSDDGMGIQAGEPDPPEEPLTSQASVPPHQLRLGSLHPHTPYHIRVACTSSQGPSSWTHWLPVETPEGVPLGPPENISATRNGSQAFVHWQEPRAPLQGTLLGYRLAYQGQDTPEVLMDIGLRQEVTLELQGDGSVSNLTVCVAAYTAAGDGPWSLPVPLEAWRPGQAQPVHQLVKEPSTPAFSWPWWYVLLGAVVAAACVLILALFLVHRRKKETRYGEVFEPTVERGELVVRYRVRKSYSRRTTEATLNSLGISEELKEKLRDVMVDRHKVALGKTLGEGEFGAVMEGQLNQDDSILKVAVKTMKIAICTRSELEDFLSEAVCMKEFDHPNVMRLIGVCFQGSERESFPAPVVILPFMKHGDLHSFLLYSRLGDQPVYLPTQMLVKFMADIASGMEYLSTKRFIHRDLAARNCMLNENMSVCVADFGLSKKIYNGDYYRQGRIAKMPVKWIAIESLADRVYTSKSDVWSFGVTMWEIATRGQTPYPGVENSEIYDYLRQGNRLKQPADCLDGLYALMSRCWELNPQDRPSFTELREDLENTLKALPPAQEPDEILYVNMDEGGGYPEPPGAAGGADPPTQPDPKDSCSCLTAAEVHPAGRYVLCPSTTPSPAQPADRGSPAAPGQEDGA
Procedure: H1299 is a non-small cell lung cancer cell.
Test samples: the compounds of the present invention, having structures shown above.
Test instruments: protein electrophoresis apparatus (made by Bio Rad), membrane transfer apparatus (made by Bio Rad), exposure apparatus (made by Tanon), and CO2 cell incubator (made by Thermo).
H1299 cells were inoculated into a 6-well plate (containing 10% FBS 1640 medium, 5×10^5 cells per well) and adherently cultivated at 37° C. and 5% CO2 for 18 h. The cells were starved overnight, and compounds with different concentrations were added. The compounds had final concentrations of 1.1 nM, 3.3 nM, 10 nM and 30 nM, with DMSO having a final concentration of 1‰. There was a medium containing 10‰ DMSO in the negative control well. The cells were incubated at 37° C. and 5% CO2 for 60 min, and then hGAS6 (R&D, final concentration: 200 ng/mL) was added to each well. The cells were further incubated for 60 min, and then the total protein of the cells was extracted for Western Blot experiment. IC50 values were calculated with GraphPad 5.0 software, and the inhibitory activities of the compounds on cell pAxl were detected.

[2] = target: T2, Axl (h) (Homo sapiens, UniProt P30530); assay: Enzymatic activity assay, Axl (h) kinase, [γ-33P]-ATP; assay type: biochemical; conditions: 10 μM [γ-33P]-ATP, 40 min, room temperature; read-out: Inhibitory Activity on Ax1 (h), IC50
T2 construct: purchased
T2 sequence (P30530 26-894): T1 sequence (P30530 26-894)
Procedure: (§1) Test samples: the compounds of the present invention, having structures and preparation methods shown above.
(§2) (1) Preparation of Compound Stock Solutions
(§3) Compounds were each dissolved in 100% DMSO to prepare stock solutions with a maximum concentration of 500 μM.
(§4) (2) Preparation of Compound Working Solutions
(§5) The compound stock solutions were diluted to final concentrations of 500 μM, 150 μM, 50 μM, 15 μM, 5 μM, 1.5 μM, 0.5 μM, 0.15 μM and 0.05 μM to prepare compound working solutions (50×).
(3) Preparation of different enzymatic reaction solutions
Axl (h) enzyme was dissolved in a mixture of 8 mM MOPS (pH 7.0), 0.2 mM EDTA and 250 μM KKSRGDYMTMQIG to prepare an enzyme solution with a final concentration of 1.7 nM. An Mg/ATP mixture of 10 mM magnesium acetate and 10 μM [γ-^33P]-ATP was used to activate the enzymatic reaction.
(§6) The compound working solutions were added to a 384-well plate, with final concentrations of 10000 nM, 3000 nM, 1000 nM, 300 nM, 100 nM, 30 nM, 10 nM, 3 nM and 1 nM, respectively, and then different enzymatic reaction solutions prepared according to the above conditions were added. The reaction solutions were incubated at room temperature for 40 min, and then 0.5% phosphoric acid solutions were added to terminate the reaction. 10 μL of the reaction solution was added dropwise to P30 filter paper which was washed 4 times with a 0.425% phosphoric acid solution and once with methanol and then placed in a scintillation counter for detection. Gray analysis was performed on the results with Image J software, and IC50 values were calculated with GraphPad 5.0 software.

[3] = target: T3, LCK (h) (Homo sapiens, UniProt P06239); assay: Enzymatic activity assay, LCK (h) kinase, [γ-33P]-ATP; assay type: biochemical; conditions: 10 μM [γ-33P]-ATP, 40 min, room temperature; read-out: Inhibitory Activity on LCK (h) kinase, IC50
T3 construct: purchased
Procedure: as §1
Preparation of Compound Stock Solutions:
as §3
Preparation of Compound Working Solutions:
as §5
Preparation of Different Enzymatic Reaction Solutions:
LCK (h) enzyme was dissolved in a mixture of 50 mM Tris (pH 7.5), 0.1 mM EGTA, 0.1 mM Na3VO4 and 250 μM KVEKIGEGTYGVVYK to prepare an enzyme solution with a final concentration of 45 nM. An Mg/ATP mixture of 10 mM magnesium acetate and 10 μM [γ-^33P]-ATP was used to activate the enzymatic reaction.
as §6

[4] = target: T4, Ron (h) (Homo sapiens, UniProt Q04912); assay: Enzymatic activity assay, Ron (h) kinase, [γ-33P]-ATP; assay type: biochemical; conditions: 10 μM [γ-33P]-ATP, 40 min, room temperature; read-out: Inhibitory Activity on Ron (h) kinase, IC50
T4 construct: purchased
Procedure: as §1, §2, §3, §4, §5
(3) Preparation of Different Enzymatic Reaction Solutions
Ron (h) enzyme was dissolved in a mixture of 8 mM MOPS (pH 7.0), 0.2 mM EDTA and 250 μM GGMEDIYFEFMGGKKK to prepare an enzyme solution with a final concentration of 40.4 nM. An Mg/ATP mixture of 10 mM magnesium acetate and 10 μM [γ-^33P]-ATP was used to activate the enzymatic reaction.
as §6

T3 sequence (P06239 whole entry): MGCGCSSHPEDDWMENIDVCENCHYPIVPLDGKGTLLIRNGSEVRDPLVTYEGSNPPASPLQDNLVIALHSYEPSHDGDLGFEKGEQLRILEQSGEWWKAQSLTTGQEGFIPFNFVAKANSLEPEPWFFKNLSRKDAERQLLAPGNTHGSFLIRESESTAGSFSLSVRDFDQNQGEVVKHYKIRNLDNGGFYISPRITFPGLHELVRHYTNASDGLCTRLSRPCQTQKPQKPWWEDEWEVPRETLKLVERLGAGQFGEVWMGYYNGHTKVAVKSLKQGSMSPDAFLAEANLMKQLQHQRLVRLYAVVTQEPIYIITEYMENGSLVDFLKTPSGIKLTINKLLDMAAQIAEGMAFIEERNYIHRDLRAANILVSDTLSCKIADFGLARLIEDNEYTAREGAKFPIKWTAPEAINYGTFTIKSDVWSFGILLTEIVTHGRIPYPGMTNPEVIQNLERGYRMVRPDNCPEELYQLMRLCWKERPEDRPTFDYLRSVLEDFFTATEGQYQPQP
T4 sequence (Q04912 25-1400): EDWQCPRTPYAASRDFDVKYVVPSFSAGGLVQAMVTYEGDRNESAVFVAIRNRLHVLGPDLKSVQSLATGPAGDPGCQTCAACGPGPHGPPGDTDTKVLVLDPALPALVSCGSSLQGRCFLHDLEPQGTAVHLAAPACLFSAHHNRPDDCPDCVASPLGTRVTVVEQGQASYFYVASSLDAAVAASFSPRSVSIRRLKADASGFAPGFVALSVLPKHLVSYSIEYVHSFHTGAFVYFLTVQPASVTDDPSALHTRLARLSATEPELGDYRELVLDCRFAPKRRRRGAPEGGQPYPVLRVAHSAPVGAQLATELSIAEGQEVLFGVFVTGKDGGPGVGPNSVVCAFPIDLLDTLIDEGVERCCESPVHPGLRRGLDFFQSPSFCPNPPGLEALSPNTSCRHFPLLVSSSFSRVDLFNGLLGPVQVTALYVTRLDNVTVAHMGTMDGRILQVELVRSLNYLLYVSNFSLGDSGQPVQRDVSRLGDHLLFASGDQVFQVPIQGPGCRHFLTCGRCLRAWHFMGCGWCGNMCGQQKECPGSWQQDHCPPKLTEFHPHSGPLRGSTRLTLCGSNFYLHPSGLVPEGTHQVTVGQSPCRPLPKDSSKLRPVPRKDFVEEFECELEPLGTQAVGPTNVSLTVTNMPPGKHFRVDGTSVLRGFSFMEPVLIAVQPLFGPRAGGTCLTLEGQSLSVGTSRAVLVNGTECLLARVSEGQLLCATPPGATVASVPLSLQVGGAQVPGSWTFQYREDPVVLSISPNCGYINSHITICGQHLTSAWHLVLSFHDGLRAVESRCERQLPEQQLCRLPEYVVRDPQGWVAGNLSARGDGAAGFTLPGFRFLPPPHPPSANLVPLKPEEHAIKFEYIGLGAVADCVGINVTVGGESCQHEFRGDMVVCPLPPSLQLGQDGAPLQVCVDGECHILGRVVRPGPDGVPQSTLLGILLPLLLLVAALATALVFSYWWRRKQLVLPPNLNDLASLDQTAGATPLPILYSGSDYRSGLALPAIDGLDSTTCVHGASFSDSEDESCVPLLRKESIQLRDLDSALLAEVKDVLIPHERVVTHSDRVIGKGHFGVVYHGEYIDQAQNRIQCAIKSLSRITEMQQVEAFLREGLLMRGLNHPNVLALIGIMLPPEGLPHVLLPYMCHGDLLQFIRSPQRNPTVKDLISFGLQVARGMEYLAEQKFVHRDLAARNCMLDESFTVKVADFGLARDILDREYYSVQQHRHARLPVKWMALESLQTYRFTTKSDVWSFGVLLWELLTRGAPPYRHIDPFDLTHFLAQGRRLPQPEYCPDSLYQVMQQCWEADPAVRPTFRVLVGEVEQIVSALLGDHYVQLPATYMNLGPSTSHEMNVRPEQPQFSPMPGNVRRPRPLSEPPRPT

pIC50 [1] | pIC50 [2] | pIC50 [3] | pIC50 [4] | SMILES
8.96 |  |  |  | CC(C)n1cc(-c2ccc(F)cc2)c(=O)c(C(=O)Nc2ccc(Oc3cc4cnn(C)c4cc3-c3cn[nH]c3)cn2)n1 [Compound 1, 5-(4-fluorophenyl)-1-isopropyl-N-(5-((1-methyl-6-(1H-pyrazol-4-yl)-1H-indazol-5-yl)oxy)pyridin-2-yl)-4-oxo-1,4-dihydropyridazine-3-carboxamide]
 | 7.80 | 6.24 |  | CC(C)n1cc(-c2ccc(F)cc2)c(=O)c(C(=O)Nc2cnc(Oc3ccnc(N)c3Cl)nc2)n1 [Compound 16, N-(2-((2-amino-3-chloropyridin-4-yl)oxy)pyrimidin-5-yl)-5-(4-fluorophenyl)-1-isopropyl-4-oxo-1,4-dihydropyridazine-3-carboxamide]
7.52 to 8.00 | 7.77 | 5.65 |  | Nc1nccc(Oc2ncc(NC(=O)c3nn(C4CC4)cc(-c4ccc(F)cc4)c3=O)cn2)c1Cl [Compound 20, N-(2-((2-amino-3-chloropyridin-4-yl)oxy)pyrimidin-5-yl)-1-cyclopropyl-5-(4-fluorophenyl)-4-oxo-1,4-dihydropyridazine-3-carboxamide]
 | 7.52 | < 5.00 | 7.04 | CC(C)n1cc(C(=O)Nc2ccc(Oc3ccnc(N)c3Cl)nc2)c(=O)c(-c2ccc(F)cc2)n1 [Compound 23, N-(6-((2-amino-3-chloropyridin-4-yl)oxy)pyridin-3-yl)-6-(4-fluorophenyl)-2-isopropyl-5-oxo-2,5-dihydropyridazine-4-carboxamide]
 | 7.89 | 5.97 |  | C=CCn1cc(-c2ccc(F)cc2)c(=O)c(C(=O)Nc2cnc(Oc3ccnc(N)c3Cl)nc2)n1 [Compound 40, 1-allyl-N-(2-((2-amino-3-chloropyridin-4-yl)oxy)pyrimidin-5-yl)-5-(4-fluorophenyl)-4-oxo-1,4-dihydropyridazine-3-carboxamide]

Reference: patent US20220298146A1, “HETEROCYCLIC DERIVATIVE AND USE THEREOF” (Transthera Sciences (Nanjing), Inc., priority 2019, published 2022)
